# Read-outs that look alike come from different tables or passages of the source.
# Assays:
# Bcl-2 = Bcl-2 (Homo sapiens, UniProt P10415); assay: Bcl-2 binding affinity analysis (fluorescence polarization binding assay)
# Procedure, shortened: (§1)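 Compounds were tested in vitro for association with the purified target, with binding quantified from the change in fluorescence polarization.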
# Bcl-xL = Bcl-xL (Homo sapiens, UniProt Q07817); assay: Bcl-xL binding affinity analysis (fluorescence polarization binding assay); set-up: scale not given here
# Bcl-xL, sequence (Q07817 whole entry): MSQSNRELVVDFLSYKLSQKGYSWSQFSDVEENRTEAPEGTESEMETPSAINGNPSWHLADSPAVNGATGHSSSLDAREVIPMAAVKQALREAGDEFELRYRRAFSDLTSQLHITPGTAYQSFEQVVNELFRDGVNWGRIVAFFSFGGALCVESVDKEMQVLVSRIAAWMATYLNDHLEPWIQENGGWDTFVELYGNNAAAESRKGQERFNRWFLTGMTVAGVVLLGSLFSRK
# Procedure, shortened: as §1
# [1] = test system: RL Human Follicular Lymphoma Cell Line; assay: Alamar blue cytotoxicity assay in RL cells; assay type: cell-based; details: Homo sapiens, 72 h incubation, read-out: Bcl RL Alamar Blue IC50
# Procedure, shortened: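 Compounds tested at 29 uM to 0.013 uM final (0.3% DMSO) on 30,000 RL cells per well. After 72 h at 37 C, 5% CO2, viability read with Alamar blue.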
# [2] = test system: Human Pancreatic Cancer Cell Line Panc1; assay: Cell death assay (propidium iodide/Hoechst) in Panc1 cells with or without camptothecin; assay type: cell-based; details: 72 hours, % cell death by propidium iodide/Hoechst
# Procedure, shortened: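 Panc1 cells, 10,000/well, exposed 72 h at 37 C to compound (29 uM to 0.13 uM, 0.3% DMSO) with or without 3 uM camptothecin. Propidium iodide and Hoechst staining imaged by fluorescence microscopy; % cell death = PI-stained/Hoechst-stained cells × 100.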
# [3] = Homo sapiens, PANC-1, without camptothecin, read-out: Panc1 − Cpt IC50
# [4] = with 3 uM Camptothecin, read-out: Panc1 + Cpt IC50
# Bcl-2, sequence (P10415 whole entry): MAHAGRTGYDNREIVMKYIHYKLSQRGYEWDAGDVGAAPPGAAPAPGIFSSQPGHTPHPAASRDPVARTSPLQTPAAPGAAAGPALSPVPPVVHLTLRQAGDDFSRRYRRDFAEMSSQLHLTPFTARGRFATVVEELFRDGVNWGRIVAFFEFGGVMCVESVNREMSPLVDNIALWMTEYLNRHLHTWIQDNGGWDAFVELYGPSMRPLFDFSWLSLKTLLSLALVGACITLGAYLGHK
Ki (Bcl-2) [nM],Bcl-XL binding affinity Ki (Bcl-xL),Structure (SMILES),IC50 [1] [nM],"IC50 [2, 3] [nM]","IC50 [2, 4] [nM]"
< 800,♯,CC(C)CC(CN(C)C)NC(=O)c1cccc(CN2OC(CO)C(C(C)O)C2C(=O)NC2CC3CC(C2C)C3(C)C)c1 (stereo not shown) [Compound 505],> 5000,> 2500,> 2500
< 800,♯,CC(O)C1C(CO)ON(Cc2cccc(CN(CCN(C)C)Cc3ccc([N+](=O)[O-])cc3)c2)C1C(=O)NC1CC2CC(C1C)C2(C)C (stereo not shown) [Compound 396],> 5000,> 2500,> 2500
< 800,♯,C[C@@H]1[C@@H](NC(=O)[C@@H]2C([C@H](C)O)[C@H](CO)ON2Cc2cccc(CN(CCN(C)C)Cc3ccc(Br)cc3)c2)C[C@H]2C[C@@H]1C2(C)C (stereo partly shown) [Compound 360],> 5000,> 2500,> 2500
< 800,♯,CC(O)C1C(CO)ON(Cc2cccc(CN(C)C(CC3CCCCC3)CN(C)C)c2)C1C(=O)NC1CC2CC(C1C)C2(C)C (stereo not shown) [Compound 442],2000 to 5000,> 2500,> 2500
< 800,♯,Cc1cccc(C)c1CN(Cc1cccc(CN2OC(CO)C(C(C)O)C2C(=O)NC2CC3CC(C2C)C3(C)C)c1)C(CC(C)C)CN(C)C (stereo not shown) [Compound 325],< 2000,< 1300,< 1300
